{"source": "patent US10085442B2", "about": "“Agrochemical formulation” (SYNGENTA PARTICIPATIONS AG, priority 2014, dated 2018)", "experiment": "Rainfastness of cyantraniliprole on soya leaf (Example 10)", "type": "physicochemical, Glycine Max (Williams variety)", "details": "rain 10 mm/hour for one hour, 0.5 g of water replaced by copolymer", "procedure": "A range of substrates can be used in this test with the chosen material in this example being a soya leaf. Herein the soya, Glycine Max (Williams variety), was grown for 4 weeks in 4 inch pots with the top 2 tri-foliates used in the study. The leaves were mounted using double sided tape to flat tiles (30 cm by 30 cm) at an even spacing of 6 leaves per tile.\nA deposition solution was then prepared at the concentration which would be used under commercial application conditions. In this case 0.12 g of cyantraniliprole technical was added to […] water for the control and the effect of the styrene malemide co-polymer determined by creating a similar sample with 0.5 g of the water replaced by styrene malemide co-polymer. […]\nThe quantities of cyantraniliprole in the acetonitrile solutions determined by mass spectrometry using a Waters Acquity UPLC and Thermo TSQ Quantum Ultra Triple Quadrupole MS Instrument or just LC/MS/MS. • Column: • Phase Ace C18 • Length (mm) 50 • Internal diameter (mm) 3.0 • Particle Size (μm) 3 • and the % active ingredient remaining after rainfall determined by dividing the quantity of cyantraniliprole on each leaf after rainfall by that before rainfall. • Cyantraniliprole: 2% cyantraniliprole remained on the leaves. • Cyantraniliprole+styrene malemide copolymer: 45% cyantraniliprole remained on the leaves.", "data": [{"smiles": "CNC(=O)c1cc(C#N)cc(C)c1NC(=O)c1cc(Br)nn1-c1ncccc1Cl", "note": "[Cyantraniliprole, cyantraniliprole]", "values": [{"measurement": "% cyantraniliprole remained on the leaves after rainfall", "value": 2, "unit": "%"}]}]}
